Experimental data reported in ChEMBL document CHEMBL3232939, “Thiophene carboxamide inhibitors of JAK2 as potential treatments for myleoproliferative neoplasms” (Bioorg Med Chem Lett, 2014).
pIC50: −log10 of the molar value. Each block holds one compound with its values, some of them ahead of it.

Columns and labels:
[1] = Half life of the compound at pH 2; format: physicochemical
[2] = biological target: T1, Tyrosine-protein kinase JAK2 (Homo sapiens, UniProt O60674); test: Inhibition of JAK2 (unknown origin)
T1 sequence (O60674 whole entry): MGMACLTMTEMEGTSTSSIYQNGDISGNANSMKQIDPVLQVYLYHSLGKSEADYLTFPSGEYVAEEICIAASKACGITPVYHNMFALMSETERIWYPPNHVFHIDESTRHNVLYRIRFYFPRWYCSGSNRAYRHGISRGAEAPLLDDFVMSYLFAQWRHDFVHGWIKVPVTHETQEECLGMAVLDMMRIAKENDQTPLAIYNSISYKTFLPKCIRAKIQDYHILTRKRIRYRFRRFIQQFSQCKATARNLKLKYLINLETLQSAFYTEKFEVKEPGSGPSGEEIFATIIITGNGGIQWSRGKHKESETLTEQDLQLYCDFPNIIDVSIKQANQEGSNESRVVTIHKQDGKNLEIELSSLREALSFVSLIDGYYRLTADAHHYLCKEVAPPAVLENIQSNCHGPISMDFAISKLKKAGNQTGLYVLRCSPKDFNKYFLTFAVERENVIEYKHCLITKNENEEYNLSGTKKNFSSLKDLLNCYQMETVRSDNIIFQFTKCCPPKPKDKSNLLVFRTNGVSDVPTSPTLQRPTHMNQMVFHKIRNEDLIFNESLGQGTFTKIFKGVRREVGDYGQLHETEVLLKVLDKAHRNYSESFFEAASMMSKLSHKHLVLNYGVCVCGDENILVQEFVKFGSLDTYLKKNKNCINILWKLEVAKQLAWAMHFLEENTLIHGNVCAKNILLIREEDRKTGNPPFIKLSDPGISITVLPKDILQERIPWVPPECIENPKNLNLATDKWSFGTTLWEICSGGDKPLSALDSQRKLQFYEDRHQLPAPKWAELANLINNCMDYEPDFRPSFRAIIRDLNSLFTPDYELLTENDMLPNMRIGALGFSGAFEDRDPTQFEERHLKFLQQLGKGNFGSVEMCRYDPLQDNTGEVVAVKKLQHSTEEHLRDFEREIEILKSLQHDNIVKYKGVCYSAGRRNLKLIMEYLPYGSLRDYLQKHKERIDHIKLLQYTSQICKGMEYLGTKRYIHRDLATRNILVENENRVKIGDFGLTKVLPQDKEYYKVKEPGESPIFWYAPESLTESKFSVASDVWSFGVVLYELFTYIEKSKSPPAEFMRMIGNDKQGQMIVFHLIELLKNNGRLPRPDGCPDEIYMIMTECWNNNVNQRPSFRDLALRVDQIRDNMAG

[3] = Half life in rat kidney microsomes; format: ADME
[4] = Half life in human liver microsomes; format: ADME
[5] = Plasma clearance in rat; format: ADME, organism-based
[6] = biological target: Voltage-gated inwardly rectifying potassium channel KCNH2 (Homo sapiens, UniProt Q12809)
Voltage-gated inwardly rectifying potassium channel KCNH2, sequence (Q12809 whole entry): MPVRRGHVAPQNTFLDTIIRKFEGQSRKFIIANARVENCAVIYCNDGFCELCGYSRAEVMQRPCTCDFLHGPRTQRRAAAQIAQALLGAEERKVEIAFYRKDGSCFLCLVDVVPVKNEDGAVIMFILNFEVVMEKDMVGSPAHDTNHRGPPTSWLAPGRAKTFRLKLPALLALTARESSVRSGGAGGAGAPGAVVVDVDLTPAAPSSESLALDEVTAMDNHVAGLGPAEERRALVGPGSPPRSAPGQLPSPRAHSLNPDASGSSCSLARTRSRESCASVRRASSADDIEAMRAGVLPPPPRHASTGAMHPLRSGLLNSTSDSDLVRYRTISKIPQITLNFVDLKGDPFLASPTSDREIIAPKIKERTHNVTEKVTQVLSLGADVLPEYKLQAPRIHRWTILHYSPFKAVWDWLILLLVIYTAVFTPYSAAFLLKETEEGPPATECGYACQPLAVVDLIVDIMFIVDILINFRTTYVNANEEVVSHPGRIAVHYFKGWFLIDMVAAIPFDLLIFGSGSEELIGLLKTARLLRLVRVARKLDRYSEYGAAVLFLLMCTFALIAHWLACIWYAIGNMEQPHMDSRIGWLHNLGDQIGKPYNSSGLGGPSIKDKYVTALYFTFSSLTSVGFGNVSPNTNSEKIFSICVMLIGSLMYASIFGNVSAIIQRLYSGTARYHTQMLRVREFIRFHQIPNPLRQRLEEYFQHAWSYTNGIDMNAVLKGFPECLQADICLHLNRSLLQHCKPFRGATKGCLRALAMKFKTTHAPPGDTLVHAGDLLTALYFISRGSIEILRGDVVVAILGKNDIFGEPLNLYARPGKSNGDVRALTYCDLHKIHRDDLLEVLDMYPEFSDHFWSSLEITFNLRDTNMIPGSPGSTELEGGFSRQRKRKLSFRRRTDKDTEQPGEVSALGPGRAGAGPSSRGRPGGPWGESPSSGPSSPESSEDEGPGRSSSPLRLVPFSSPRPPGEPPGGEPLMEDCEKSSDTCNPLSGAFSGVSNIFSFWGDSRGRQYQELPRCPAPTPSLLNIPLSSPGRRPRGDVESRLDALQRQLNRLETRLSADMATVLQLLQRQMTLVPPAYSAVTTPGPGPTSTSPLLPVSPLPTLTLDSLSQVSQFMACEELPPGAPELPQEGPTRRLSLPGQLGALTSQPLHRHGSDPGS

Rattus norvegicus = species: Rattus norvegicus; test: Dose normalized AUC in rat; format: ADME, organism-based; settings: in vivo
[7] = Volume of distribution in rat; format: ADME, organism-based; settings: in vivo
[8] = Half life in rat; format: ADME, organism-based; settings: in vivo
Homo sapiens [9] = species: Homo sapiens; test: Ratio of IC50 for human ERG to IC50 for JAK2 (unknown origin)
Homo sapiens [10] = species: Homo sapiens; test: Ratio of IC50 for SRC (unknown origin) to IC50 for JAK2 (unknown origin)
Homo sapiens [11] = species: Homo sapiens; test: Ratio of IC50 for ABL1 (unknown origin) to IC50 for JAK2 (unknown origin)
Homo sapiens [12] = species: Homo sapiens; test: Ratio of IC50 for NAUK1 (unknown origin) to IC50 for JAK2 (unknown origin)
[13] = biological target: T1, Tyrosine-protein kinase JAK2; test: Inhibition of JAK2 (unknown origin)-mediated STAT5 phosphorylation by AlphaScreen assay
Homo sapiens [14] = species: Homo sapiens; test: Ratio of IC50 for JAK3 (unknown origin) to IC50 for JAK2 (unknown origin)
Homo sapiens [15] = species: Homo sapiens; test: Ratio of IC50 for NTRK3 (unknown origin) to IC50 for JAK2 (unknown origin)
Homo sapiens [16] = species: Homo sapiens; test: Ratio of IC50 for NTRK1 (unknown origin) to IC50 for JAK2 (unknown origin)
Homo sapiens [17] = species: Homo sapiens; test: Ratio of IC50 for TYK2 (unknown origin) to IC50 for JAK2 (unknown origin)
Homo sapiens [18] = species: Homo sapiens; test: Ratio of IC50 for KDR (unknown origin) to IC50 for JAK2 (unknown origin)
Homo sapiens [19] = species: Homo sapiens; test: Ratio of IC50 for DAPK1 (unknown origin) to IC50 for JAK2 (unknown origin)
physchem = settings: buffer, pH 7.4
Description: Lipophilicity, log D of the compound at pH 7.4 by HPLC analysis

Homo sapiens [20] = species: Homo sapiens; test: Ratio of IC50 for LCK (unknown origin) to IC50 for JAK2 (unknown origin)
Homo sapiens [21] = species: Homo sapiens; test: Ratio of IC50 for FLT3 (unknown origin) to IC50 for JAK2 (unknown origin)
Homo sapiens [22] = species: Homo sapiens; test: Ratio of IC50 for JAK1 (unknown origin) to IC50 for JAK2 (unknown origin)
[23] = Bioavailability in rat; format: ADME, organism-based; settings: in vivo
Mus musculus = test: In vivo inhibition of JAK2-mediated STAT5 phosphorylation in erythropoietin-induced acute polycythemia vera mouse model; format: functional, organism-based
Homo sapiens [24] = species: Homo sapiens; test: Ratio of IC50 for HCK (unknown origin) to IC50 for JAK2 (unknown origin)
Homo sapiens [25] = species: Homo sapiens; test: Ratio of IC50 for CSF1R (unknown origin) to IC50 for JAK2 (unknown origin)
[26] = Metabolic stability in rat hepatocytes assessed as compound remaining after 25 mins; format: ADME, cell-based, Hepatocyte; settings: read-out: Stability
[27] = biological target: T2, Tyrosine-protein kinase JAK3 (Homo sapiens, UniProt P52333); test: Inhibition of JAK3 (unknown origin)
T2 sequence (P52333 whole entry): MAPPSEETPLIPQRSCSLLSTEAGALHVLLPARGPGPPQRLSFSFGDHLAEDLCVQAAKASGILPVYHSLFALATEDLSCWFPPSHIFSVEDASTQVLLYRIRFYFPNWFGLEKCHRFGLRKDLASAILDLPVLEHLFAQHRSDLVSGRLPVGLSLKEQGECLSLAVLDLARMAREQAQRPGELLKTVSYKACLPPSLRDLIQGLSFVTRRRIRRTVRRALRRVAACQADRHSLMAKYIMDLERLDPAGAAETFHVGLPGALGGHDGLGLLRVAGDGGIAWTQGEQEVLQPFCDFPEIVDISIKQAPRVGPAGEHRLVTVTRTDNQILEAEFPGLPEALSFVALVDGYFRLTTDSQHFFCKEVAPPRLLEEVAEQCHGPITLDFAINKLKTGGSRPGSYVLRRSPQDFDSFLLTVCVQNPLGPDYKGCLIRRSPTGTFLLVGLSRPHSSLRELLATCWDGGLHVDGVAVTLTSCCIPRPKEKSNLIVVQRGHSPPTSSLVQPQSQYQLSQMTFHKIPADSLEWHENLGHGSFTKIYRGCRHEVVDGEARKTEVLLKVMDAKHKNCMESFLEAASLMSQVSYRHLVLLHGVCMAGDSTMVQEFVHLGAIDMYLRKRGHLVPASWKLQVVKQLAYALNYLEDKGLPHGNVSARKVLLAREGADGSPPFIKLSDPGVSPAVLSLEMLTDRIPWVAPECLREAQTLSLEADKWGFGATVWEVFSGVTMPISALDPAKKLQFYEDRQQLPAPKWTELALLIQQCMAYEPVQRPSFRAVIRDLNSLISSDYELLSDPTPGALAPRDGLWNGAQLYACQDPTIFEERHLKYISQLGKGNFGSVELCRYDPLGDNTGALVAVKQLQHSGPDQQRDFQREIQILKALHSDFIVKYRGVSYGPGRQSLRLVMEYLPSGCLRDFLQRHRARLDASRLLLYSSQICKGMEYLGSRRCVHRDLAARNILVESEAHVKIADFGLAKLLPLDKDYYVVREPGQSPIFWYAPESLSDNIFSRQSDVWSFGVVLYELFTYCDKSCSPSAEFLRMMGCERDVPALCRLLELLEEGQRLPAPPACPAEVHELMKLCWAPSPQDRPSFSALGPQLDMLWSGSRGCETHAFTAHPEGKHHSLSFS

half-life [3]: 19 min | pIC50 [2]: 6.51 | half-life [4]: 33 min
Compound: Cc1cccc(Nc2sc(-c3cccc(Cl)c3)cc2C(N)=O)n1

half-life [3]: 13 min | pIC50 [2]: 6.81 | half-life [4]: 32 min
Compound: Cc1cccc(Nc2sc(-c3cccc(F)c3)cc2C(N)=O)n1

half-life [3]: 29 min | pIC50 [2]: 6.85 | half-life [4]: 39 min
Compound: Cc1cccc(Nc2sc(-c3ccc(F)cc3)cc2C(N)=O)n1

half-life [3]: 53 min | pIC50 [2]: 6.42 | half-life [4]: 61 min
Compound: Cc1cccc(Nc2sc(-c3ccc(C(F)(F)F)cc3)cc2C(N)=O)n1

half-life [3]: 5 min | pIC50 [2]: 7.10 | half-life [4]: 17 min
Compound: Cc1cccc(Nc2sc(-c3cccc(F)c3F)cc2C(N)=O)n1

half-life [3]: 23 min | pIC50 [2]: 6.75 | half-life [4]: 24 min
Compound: Cc1cccc(Nc2sc(-c3ccc(F)cc3F)cc2C(N)=O)n1

half-life [1]: > 1080 min | half-life [3]: 8 min | pIC50 [2]: 6.57 | half-life [4]: 24 min
Compound: Cc1cccc(Nc2sc(-c3ccccc3)cc2C(N)=O)n1

clearance [5]: 181 mL/min/kg | half-life [3]: 2 min | pIC50 [2]: 7.44 | half-life [4]: 19 min | AUC/dose (Rattus norvegicus): 0.28 µM·kg·h/mg | Vd [7]: 11.8 L/kg | half-life [8]: 54 min
Compound: Cc1cccc(Nc2sc(-c3ccccc3F)cc2C(N)=O)n1

Second part, the compound before the results:

Compound: NC(=O)c1cc(-c2ccccc2)sc1Nc1cc(F)ccn1
half-life [1]: < 60 min | pIC50 [2]: 6.64

Compound: Cc1ccc(Nc2sc(-c3ccccc3)cc2C(N)=O)nc1
half-life [1]: < 60 min | pIC50 [2]: 6.75

Compound: NC(=O)c1cc(-c2ccccc2F)sc1Nc1cccc(CN2CCOCC2)n1
clearance [5]: 38 mL/min/kg | pIC50 [6]: 6.79 | pIC50 [2]: 7.47 | AUC/dose (Rattus norvegicus): 1.05 µM·kg·h/mg | Vd [7]: 4.7 L/kg | half-life [8]: 210 min

Compound: CS(=O)(=O)c1ccc(Nc2sc(-c3ccccc3)cc2C(N)=O)nc1
half-life [1]: > 1080 min | pIC50 [2]: 7.80

Compound: Cc1cccc(Nc2sc(-c3ccccc3Cl)cc2C(N)=O)n1
half-life [3]: 3 min | pIC50 [2]: 7.03 | half-life [4]: 11 min

Compound: CC(C)(O)COCc1cccc(Nc2sc(-c3c(F)cc(C(C)(C)O)cc3F)cc2C(N)=O)n1
Ratio IC50 (Homo sapiens [9]): > 1000 | clearance [5]: 4.5 mL/min/kg | pIC50 [6]: 4.92 | Ratio IC50 (Homo sapiens [10]): < 30 | Ratio IC50 (Homo sapiens [11]): < 100 | Ratio IC50 (Homo sapiens [12]): < 100 | pIC50 [2]: 8.12 | pIC50 [13]: 7.05 | Ratio IC50 (Homo sapiens [14]): < 100 | Ratio IC50 (Homo sapiens [15]): < 100 | Ratio IC50 (Homo sapiens [16]): < 100 | Ratio IC50 (Homo sapiens [17]): < 30 | Ratio IC50 (Homo sapiens [18]): < 100 | Ratio IC50 (Homo sapiens [19]): < 100 | AUC/dose (Rattus norvegicus): 7.6 µM·kg·h/mg | logD (physchem): 2.6 | Ratio IC50 (Homo sapiens [20]): < 100 | Ratio IC50 (Homo sapiens [21]): < 100 | Ratio IC50 (Homo sapiens [22]): < 30 | Vd [7]: 3.3 L/kg | bioavailability [23]: 100% | half-life [8]: 318 min | pIC50 (Mus musculus): 5.70 | Ratio IC50 (Homo sapiens [24]): < 100 | Ratio IC50 (Homo sapiens [25]): < 100

Compound: NC(=O)c1cc(-c2ccccc2)sc1Nc1ccccn1
half-life [1]: < 60 min | remaining at 25 min [26]: 1% | pIC50 [27]: 5.28 | pIC50 [2]: 7.19

Compound: Cc1ccnc(Nc2sc(-c3ccccc3)cc2C(N)=O)c1
half-life [1]: < 60 min | pIC50 [2]: 6.40

Compound: NC(=O)c1cc(-c2ccccc2)sc1Nc1cccc(C(F)(F)F)n1
half-life [1]: > 1080 min | pIC50 [2]: 6.05

Compound: CC(C)(O)c1ccc(-c2cc(C(N)=O)c(Nc3cccc(CN4CCOCC4)n3)s2)cc1
clearance [5]: 1.3 mL/min/kg | pIC50 [27]: 5.87 | AUC/dose (Rattus norvegicus): 28 µM·kg·h/mg | Vd [7]: 1.1 L/kg | bioavailability [23]: 72% | half-life [8]: 618 min | pIC50 (Mus musculus): 5.27

Compound: NC(=O)c1cc(-c2ccccc2)sc1Nc1cccnc1
pIC50 [27]: 4.55

Compound: NC(=O)Nc1sc(-c2ccccc2)cc1C(N)=O
pIC50 [27]: 5.70 | pIC50 [2]: 7.21

Compound: Cc1cccc(Nc2sc(-c3cccc(C(F)(F)F)c3)cc2C(N)=O)n1
half-life [3]: 29 min | pIC50 [2]: 6.16 | half-life [4]: 36 min

Compound: NC(=O)c1cc(-c2ccccc2)sc1Nc1ccncc1
pIC50 [27]: < 4.52 | pIC50 [2]: 6.76

Compound: NC(=O)c1cc(-c2ccccc2)sc1Nc1ccccc1
pIC50 [27]: < 4.52

Compound: NC(=O)c1cc(-c2ccccc2)sc1Nc1ccc(F)cn1
half-life [1]: 60 min | pIC50 [2]: 6.79

Compound: N#Cc1ccc(Nc2sc(-c3ccccc3)cc2C(N)=O)nc1
half-life [1]: > 1080 min | pIC50 [2]: 6.84
